According to patent US20120088730A1, “USE OF ANGIOTENSIN CONVERTING ENZYME (ACE) DOMAIN SPECIFIC INHIBITORS TO INHIBIT OR ENHANCE CYTOKINE PRODUCTION AND ALTER IMMUNE RESPONSE” (CEDARS-SINAI MEDICAL CENTER, priority 2009, published 2012):
One block for each compound: values may come before it. Ends that are not written are not given here.

How the values were obtained:
[1] = molecular target: T1, ACE C-domain (Homo sapiens, UniProt P12821); details: lower for C-domain; cited from earlier work
T1 construct: with a dissociation constant more than 3 orders of magnitude lower for the ACE C-domain than the N-domain
T1 sequence (P12821 643-1222 limits assumed): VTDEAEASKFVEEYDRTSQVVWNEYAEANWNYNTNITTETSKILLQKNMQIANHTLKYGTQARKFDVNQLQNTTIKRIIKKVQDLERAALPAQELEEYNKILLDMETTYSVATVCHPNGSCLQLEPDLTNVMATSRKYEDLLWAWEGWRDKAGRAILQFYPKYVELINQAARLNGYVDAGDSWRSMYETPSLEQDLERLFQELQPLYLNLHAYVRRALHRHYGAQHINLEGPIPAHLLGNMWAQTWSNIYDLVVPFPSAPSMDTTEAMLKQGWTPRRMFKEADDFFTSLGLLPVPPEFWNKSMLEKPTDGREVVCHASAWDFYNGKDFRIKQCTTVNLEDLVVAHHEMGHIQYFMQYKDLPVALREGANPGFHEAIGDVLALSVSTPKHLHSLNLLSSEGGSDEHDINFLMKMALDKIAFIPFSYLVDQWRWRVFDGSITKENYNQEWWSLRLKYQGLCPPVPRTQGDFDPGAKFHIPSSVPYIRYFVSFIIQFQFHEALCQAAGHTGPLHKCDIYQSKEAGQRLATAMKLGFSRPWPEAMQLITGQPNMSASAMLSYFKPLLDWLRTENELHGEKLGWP

[2] = cited from earlier work
[3] = tested on: 2-kidney, 1-clip hypertensive rats; details: osmotic mini-pump; cited from earlier work
[4] = tested on: macrophages; details: cited from earlier work
[5] = tested on: aldosterone-salt hypertension; details: cited from earlier work
[6] = tested on: angiotensin II-induced hypertension; details: secondary to angiotensin II-induced hypertension; cited from earlier work
[7] = tested on: cardiac fibroblasts; details: cited from earlier work
[8] = tested on: Smad2; details: cited from earlier work
[9] = molecular target: Hip-His-Leu (HHL) (synthetic ACE substrate); test: cell-based or functional assay
[10] = tested on: TNF; test: TNF with AT1R inhibitor, ACE7 (N-terminus KO) vs wild type (FIG. 12); type: cell-based, mouse; details: ACE7 (N-terminus KO) and wild type
Protocol: FIG. 12 depicts, in accordance with an embodiment of the present invention, AT1R inhibitor losartan can lower TNF, but cannot eliminate the difference between ACE7 (N-terminus KO) and wild type.
(§1) To obtain large numbers of macrophages, N-KO, C-KO and WT mice were injected intraperitoneally with thioglycolate. After four days, cells were collected, washed and counted. Aliquots of 1×10^6 cells were adhered in 24 well plates. After 2 hrs, non-adherent cells were removed and the plates were visually evaluated to verify that wells contained nearly identical numbers of adherent cells. Media containing 1 ug/ml of LPS (a model activator of macrophages) was then added. After 24 hrs, supernatants were collected and the concentrations of TNF-α and IL-12p40 (one of the 2 proteins comprising IL-12) were determined by ELISA (eBioscience). However, there was a marked difference in cytokine expression profile; macrophages derived from N-KO mice producing far more TNF- a and IL-12p40 than either C-KO or WT mice (p values for TNF-α: N-KO vs. C-KO or WT, p<0.001; p values for IL12p40: N-KO vs. C-KO or WT, p<0.02). Further, there was a clear trend of macrophages from C-KO mice producing less cytokines than wild-type cells (TNF- a: C-KO vs. WT, p<0.07; IL12p40: C-KO vs. WT, p<0.02). Thus, in the absence of ACE N-terminal catalytic activity, TNF-α and IL-12 cytokine expression was increased. […]

[11] = molecular target: AcSDAcKP (synthetic ACE substrate); test: cell-based or functional assay
[12] = tested on: cytokine expression; test: cytokine expression with ACE inhibitor, ACE7 (N-terminus KO) vs wild type (FIG. 11); type: cell-based, mouse; details: ACE7 (N-terminus KO) and wild type
Protocol: as §1, with “increased. In the absence of C-terminal catalytic activity, there is a strong reduction of production of these cytokines.” for “increased.”

Compound: O=C(NC(Cc1ccccc1)P(=O)(O)C1CCCC1C(=O)NC(Cc1c[nH]c2ccccc12)C(=O)O)OCc1ccccc1 (centres unmarked) [RXPA 380]
- dissociation constant for the ACE C-domain relative to the N-domain [1]: more than 3 orders of magnitude
- effectiveness in mice ([2]; mice): effective
- stability in vivo ([2]; mouse, in vivo): stable

Compound: Acetyl-SerAspLysPro (Ac-SDKP) [AcSDKP, tetrapeptide cleaved from thymosin-β4 by prolyl oligopeptidase]
- blood pressure [3]: no effect on blood pressure
- development of fibrosis in the heart [3]: prevented the development of fibrosis in the heart
- macrophage production of TNF [4]: reducing macrophage production of TNF
- collagen deposition and cell proliferation in the heart and kidney [5]: prevented increased collagen deposition and cell proliferation
- aortic fibrosis [6]: reduced aortic fibrosis
- growth of cardiac fibroblasts [7]: inhibits the growth of cardiac fibroblasts
- TGF-β1 stimulated phosphorylation of Smad2 [8]: inhibits

- catalytic activity of plasma (hydrolysis efficiency against wild-type mice) (% of wild-type efficiency) [9]: 18
Compound: ACE of ACE 13/13 (C-KO) mice: mouse angiotensin converting enzyme with the C-terminal catalytic site inactivated (histidines of HEMGH mutated to lysines) (from UniProt P09470 35-1237)

Compound: CCCCc1nc(Cl)c(CO)n1Cc1ccc(-c2ccccc2-c2nn[nH]n2)cc1 [losartan]
- TNF [10]: can lower TNF

- catalytic activity of plasma (cleavage efficiency against wild-type mice) (% of wild-type efficiency) [11]: 3
Compound: ACE of ACE 7/7 (N-KO) mice: mouse angiotensin converting enzyme with the N-terminal catalytic site inactivated (HEMGH motif converted to KEMGK) (from UniProt P09470 35-1237)

Compound: NCCCC[C@H](N[C@@H](CCc1ccccc1)C(=O)O)C(=O)N1CCC[C@H]1C(=O)O [lisinopril]
- cytokine expression [12]: can lower cytokine expression
